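Values below derive from 48-hour exposures of cells grown in 96-well plates, with endpoints linearly interpolated between the two concentrations bracketing the appropriate inhibition level. The concentration for 50% growth inhibition is given as GI50. TGI is the concentration that stops growth completely.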
Experiments:
Test in all cases: growth of human tumour cells (NCI), 48 h
PC-3 prostate = system: PC-3 prostate
OVCAR-3 ovarian = system: OVCAR-3 ovarian
OVCAR-8 ovarian = system: OVCAR-8 ovarian
MCF7 breast = system: MCF7 breast
OVCAR-4 ovarian = system: OVCAR-4 ovarian
SR leukemia = system: SR leukemia
HCC-2998 colon = system: HCC-2998 colon
M14 melanoma = system: M14 melanoma
BT-549 breast = system: BT-549 breast
COLO 205 colon = system: COLO 205 colon
SNB-75 CNS = system: SNB-75 CNS
OVCAR-5 ovarian = system: OVCAR-5 ovarian
UO-31 renal = system: UO-31 renal
SK-MEL-28 melanoma = system: SK-MEL-28 melanoma
HOP-92 NSCLC = system: HOP-92 NSCLC
A549 NSCLC = system: A549 NSCLC
HS 578T breast = system: HS 578T breast
UACC-257 melanoma = system: UACC-257 melanoma
CAKI-1 renal = system: CAKI-1 renal
NCI-H460 lung = system: NCI-H460 lung
HOP-62 NSCLC = system: HOP-62 NSCLC
SK-OV-3 ovarian = system: SK-OV-3 ovarian
NCI-H226 lung = system: NCI-H226 lung
CCRF-CEM leukemia = system: CCRF-CEM leukemia
TK-10 renal = system: TK-10 renal
SN12C renal = system: SN12C renal
HCT-116 colon = system: HCT-116 colon
UACC-62 melanoma = system: UACC-62 melanoma
KM12 colon = system: KM12 colon
DU-145 prostate = system: DU-145 prostate
SK-MEL-5 melanoma = system: SK-MEL-5 melanoma
IGROV1 ovarian = system: IGROV1 ovarian
SNB-19 CNS = system: SNB-19 CNS
NCI/ADR-RES ovarian = system: NCI/ADR-RES ovarian
MDA-MB-435 = system: MDA-MB-435
SF-268 CNS = system: SF-268 CNS
MALME-3M melanoma = system: MALME-3M melanoma
MDA-MB-231 breast = system: MDA-MB-231 breast
A498 renal = system: A498 renal
NCI-H522 lung = system: NCI-H522 lung
RPMI-8226 leukemia = system: RPMI-8226 leukemia
LOX IMVI melanoma = system: LOX IMVI melanoma
SF-295 CNS = system: SF-295 CNS
EKVX NSCLC = system: EKVX NSCLC
T-47D breast = system: T-47D breast
HCT-15 colon = system: HCT-15 colon
SK-MEL-2 melanoma = system: SK-MEL-2 melanoma
U251 CNS = system: U251 CNS
SF-539 CNS = system: SF-539 CNS
786-0 renal = system: 786-0 renal
HT29 colon = system: HT29 colon
RXF 393 renal = system: RXF 393 renal
ACHN renal = system: ACHN renal

SMILES: CC(C)(O)c1cncc(-c2ccc3ncnc(N4CCc5cc(F)c(Cl)cc54)c3c2)c1
- GI50 (PC-3 prostate): 775 nM
- TGI (PC-3 prostate): > 100000 nM
- GI50 (OVCAR-3 ovarian): 2270 nM
- TGI (OVCAR-3 ovarian): > 100000 nM
- GI50 (OVCAR-8 ovarian): 2590 nM
- TGI (OVCAR-8 ovarian): > 100000 nM
- GI50 (MCF7 breast): 349 nM
- TGI (MCF7 breast): > 100000 nM
- GI50 (OVCAR-4 ovarian): 1350 nM
- TGI (OVCAR-4 ovarian): > 100000 nM
- GI50 (SR leukemia): 1520 nM
- TGI (SR leukemia): > 100000 nM
- GI50 (HCC-2998 colon): 2360 nM
- TGI (HCC-2998 colon): > 100000 nM
- GI50 (M14 melanoma): 4890 nM
- TGI (M14 melanoma): > 100000 nM
- GI50 (BT-549 breast): 1220 nM
- TGI (BT-549 breast): 8890 nM
- GI50 (COLO 205 colon): 3520 nM
- TGI (COLO 205 colon): > 100000 nM
- GI50 (SNB-75 CNS): 407 nM
- TGI (SNB-75 CNS): 15200 nM
- GI50 (OVCAR-5 ovarian): 1170 nM
- TGI (OVCAR-5 ovarian): > 100000 nM
- GI50 (UO-31 renal): 184 nM
- TGI (UO-31 renal): 74200 nM
- GI50 (SK-MEL-28 melanoma): 2980 nM
- TGI (SK-MEL-28 melanoma): > 100000 nM
- GI50 (HOP-92 NSCLC): 151 nM
- TGI (HOP-92 NSCLC): 827 nM
- GI50 (A549 NSCLC): 773 nM
- TGI (A549 NSCLC): > 100000 nM
- GI50 (HS 578T breast): 754 nM
- TGI (HS 578T breast): 11700 nM
- GI50 (UACC-257 melanoma): 3960 nM
- TGI (UACC-257 melanoma): > 100000 nM
- GI50 (CAKI-1 renal): 388 nM
- TGI (CAKI-1 renal): > 100000 nM
- GI50 (NCI-H460 lung): 1330 nM
- TGI (NCI-H460 lung): > 100000 nM
- GI50 (HOP-62 NSCLC): 1190 nM
- TGI (HOP-62 NSCLC): > 100000 nM
- GI50 (SK-OV-3 ovarian): 649 nM
- TGI (SK-OV-3 ovarian): 12200 nM
- GI50 (NCI-H226 lung): 3460 nM
- TGI (NCI-H226 lung): > 100000 nM
- GI50 (CCRF-CEM leukemia): 2320 nM
- TGI (CCRF-CEM leukemia): > 100000 nM
- GI50 (TK-10 renal): 417 nM
- TGI (TK-10 renal): > 100000 nM
- GI50 (SN12C renal): 749 nM
- TGI (SN12C renal): > 100000 nM
- GI50 (HCT-116 colon): 2350 nM
- TGI (HCT-116 colon): > 100000 nM
- GI50 (UACC-62 melanoma): 543 nM
- TGI (UACC-62 melanoma): > 100000 nM
- GI50 (KM12 colon): 5860 nM
- TGI (KM12 colon): > 100000 nM
- GI50 (DU-145 prostate): 1490 nM
- TGI (DU-145 prostate): > 100000 nM
- GI50 (SK-MEL-5 melanoma): 2940 nM
- TGI (SK-MEL-5 melanoma): > 100000 nM
- GI50 (IGROV1 ovarian): 235 nM
- TGI (IGROV1 ovarian): 1300 nM
- GI50 (SNB-19 CNS): 2510 nM
- TGI (SNB-19 CNS): > 100000 nM
- GI50 (NCI/ADR-RES ovarian): 1590 nM
- TGI (NCI/ADR-RES ovarian): > 100000 nM
- GI50 (MDA-MB-435): 2630 nM
- TGI (MDA-MB-435): > 100000 nM
- GI50 (SF-268 CNS): 3220 nM
- TGI (SF-268 CNS): > 100000 nM
- GI50 (MALME-3M melanoma): 1520 nM
- TGI (MALME-3M melanoma): > 100000 nM
- GI50 (MDA-MB-231 breast): 1500 nM
- TGI (MDA-MB-231 breast): > 100000 nM
- GI50 (A498 renal): 197 nM
- TGI (A498 renal): 1170 nM
- GI50 (NCI-H522 lung): 1870 nM
- TGI (NCI-H522 lung): 85200 nM
- GI50 (RPMI-8226 leukemia): 1990 nM
- TGI (RPMI-8226 leukemia): > 100000 nM
- TGI (LOX IMVI melanoma): 65100 nM
- GI50 (SF-295 CNS): 1140 nM
- TGI (SF-295 CNS): 23100 nM
- GI50 (EKVX NSCLC): 520 nM
- TGI (EKVX NSCLC): 9120 nM
- GI50 (T-47D breast): 236 nM
- TGI (T-47D breast): 4080 nM
- GI50 (HCT-15 colon): 1110 nM
- TGI (HCT-15 colon): > 100000 nM
- GI50 (SK-MEL-2 melanoma): 4890 nM
- TGI (SK-MEL-2 melanoma): 66600 nM
- GI50 (U251 CNS): 6750 nM
- TGI (U251 CNS): > 100000 nM
- GI50 (SF-539 CNS): 1960 nM
- TGI (SF-539 CNS): 84500 nM
- GI50 (786-0 renal): 722 nM
- TGI (786-0 renal): 75400 nM
- GI50 (HT29 colon): 908 nM
- TGI (HT29 colon): > 100000 nM
- GI50 (RXF 393 renal): 432 nM
- TGI (RXF 393 renal): 3070 nM
- GI50 (ACHN renal): 572 nM
- TGI (ACHN renal): > 100000 nM
